The values that follow come from patent US20260053800A1 (Veradermics, Incorporated, priority 2024, published 2026).

Data set [1] in a line: Case studies, oral minoxidil in male patients with androgenetic alopecia (blood pressure, heart rate, hair growth). The following applies: person.
The test system of the next data set is mice. To be noted: dietary up to 2 years, cited from earlier work.
The test system of a further data set is rat hepatocyte. The following applies: cited from earlier work.
For data set [2] the following is noted: cited from earlier work.
Another data set has as its system rats. The following applies: two-year study, oral administration; cited from earlier work.
The next data set has as its system Chinese hamster cells. To be noted: long exposure times; cited from earlier work.
The next data set has as its system mouse bone marrow. The following applies: in vivo; cited from earlier work.
The test system of another data set is human lymphocytes. The following applies: cited from earlier work.
The conditions of data set [3]: hypertensive patients; intravenous infusion; cited from earlier work.
For data set [4] the following is noted: cited from earlier work. This is another data set of the same source.
The subject of another data set is rat bone marrow. To be noted: in vivo; cited from earlier work.

Consider `Nc1cc(N2CCCCC2)nc(N)[n+]1[O-]` [minoxidil], for which the adverse events result in data set [1] (0.625 mg four times a day) is reported as “No unwanted hair growth or other adverse events were noticed”; in [1] (1.25 mg QID) it was “No unwanted hair growth or other adverse events, including any cardiac effects, were noticed”. The “reductions in blood pressure” value in data set [1] (0.625 mg four times a day) is on record as “did not experience significant reductions in blood pressure”. Also, the “incidence of malignant lymphomas” value with mice (females, all dose levels (10, 25, and 63 mg/kg/day)) is “increased incidence of malignant lymphomas in females”. For the same compound, the “incidence of hepatic nodules” value in the data set on mice (males, 63 mg/kg/day) is “increased incidence of hepatic nodules in males”. Also, the mutagenicity entry in the data set on rat hepatocyte, in the data set on mouse bone marrow and with rat bone marrow was “not mutagenic” each time. Besides, in data set [2] (normotensive healthy volunteers, 2.5 mg, 5 mg, or 10 mg oral), the “effect on blood pressure” value is reported as “little effect on blood pressure”. In addition, in [2] (primarily conjugation with glucuronic acid), the “fraction of oral dose metabolized” value is given as “About 90%”. In addition, the carcinogenicity findings result with rats was “no positive findings”. Besides, the cytogenetic assay result in the data set with Chinese hamster cells is “equivocal”; in the data set with human lymphocytes, “negative”. Further, the “steady state plasma concentration associated with significant (>5 beats per minute) changes in heart rate” value in [3] is reported as “above 20 ng/mL”. Also, the “temporary decrease in hematocrit, hemoglobin, and erythrocyte count” value in [4] (chronic therapy for severe hypertension, initially) is on record as “approximately 7%”. Further, the “patients exhibiting ECG alterations of T waves” value in data set [4] (soon after starting therapy) is on record as “approximately 60%”.
